# Test results from EP0334853B1, “SOFT STEROIDS HAVING ANTI-INFLAMMATORY ACTIVITY” (BODOR, Nicholas S., priority 1987, dated 1989).
# Test system: skin of the flexor surface of the forearm
# Test: Topical vasoconstriction test (blanching, method of McKenzie and Stoughton)
# Type: in vivo
# Details: 0.03M solution in acetone/isopropylmyristate 90:10, 0.05 milliliter on 1 cm patch, occluded; patch removed after about six hours, blanching score one hour later; average of duplicate, except entries marked ** (duplicate experiment not conducted)
# Procedure: TOPICAL VASOCONSTRICTION TEST
# A topical vasoconstriction test was conducted using the general method of McKenzie, A.W. and R.B. Stoughton, Arch. Dermatol, 86, (1962), 608-10. The topical vasoconstriction test was done in order to evaluate the anti-inflammatory potency of the novel compounds of the present invention. A 0.03M solution of the test compound in acetone/isopropylmyristate 90:10 volume/volume was prepared. An aliquot of 0.05 milliliter was applied to a circular patch, one centimeter in diameter, which was in turn applied against the skin of the flexor surface of the forearm (previously cleansed with ethanol 95% and dried). This application was occluded with a water-impervious film. The patch was removed after about six hours and the blanching score was evaluated one hour later. Two control compounds were used at the same time and under the same conditions. The control compounds were hydrocortisone 17-valerate and cortienic acid 17-ethylcarbonate chloromethylester. The experiment was made in duplicate and the average estimation values for the blanching activity are reported in Table I. The left column of Table I indicates the 17α-substituent of the structure: [drawing 44]
row,Compound,BLANCHING STUDIES Value (average estimation values for the blanching activity)
1,"CCCO[C@]1(C(=O)OCCl)CC[C@H]2[C@@H]3CCC4=CC(=O)CC[C@]4(C)[C@H]3[C@@H](O)C[C@@]21C [-OC₃H₇, Chloromethyl 11β-hydroxy-17α-propoxyandrost-4-en-3-one-17β-carboxylate]",1 **
2,"CCOC(=O)O[C@]1(C(=O)OCCl)CC[C@H]2[C@@H]3CCC4=CC(=O)CC[C@]4(C)[C@H]3[C@@H](O)C[C@@]21C [carbonate, cortienic acid 17-ethylcarbonate chloromethylester, reference compound]",1.75
3,hydrocortisone 17-valerate [reference compound],1.5
4,"CCCCO[C@]1(C(=O)OCCl)CC[C@H]2[C@@H]3CCC4=CC(=O)CC[C@]4(C)[C@H]3[C@@H](O)C[C@@]21C [-OC₄H₉, Chloromethyl 17α-butoxy-11β-hydroxyandrost-4-en-3-one-17β-carboxylate]",0.5
5,"CCO[C@]1(C(=O)OCCl)CC[C@H]2[C@@H]3CCC4=CC(=O)CC[C@]4(C)[C@H]3[C@@H](O)C[C@@]21C [-OCH₂H₅, chloromethyl 11β-hydroxy-17α-ethoxyandrost-4-en-3-one-17β-carboxylate]",0.75

# Same assay, conditions: previous study, no details given
row,Compound,"activity (blanching), determined in a previous study"
1,"CO[C@]1(C(=O)OCCl)CC[C@H]2[C@@H]3CCC4=CC(=O)CC[C@]4(C)[C@H]3[C@@H](O)C[C@@]21C [-OCH₃, chloromethyl 11β-hydroxy-17α-methoxyandrost-4-en-3-one-17β-carboxylate]",* The 17-methoxy homologue was determined in a previous study to have low activity.
